Source: PMC4501059, “Responding to the challenge of untreatable gonorrhea: ETX0914, a first-in-class agent with a distinct mechanism-of-action against bacterial Type II topoisomerases” (Scientific Reports, 2015)
Converted amounts (≈) assume the structure as drawn. Read-outs that look alike come from different tables or passages of the source.

Key:
Mycoplasma genitalium = tested on: Mycoplasma genitalium; set-up: method as in ref 3 (supplement); conditions: 11 tested; ref 3 (supplement); cited from earlier work
MRSA ATCC33591 = assay: MIC (modal, CLSI broth microdilution); type: cell-based, S. aureus; conditions: Staphylococcus aureus, read-out: Modal MIC
DNA gyrase or Topo IV = assay: Malachite Green based ATPase assays; type: biochemical
[1] = tested on: mammalian erythroid cell lines; assay: erythroid cytotoxicity (growth inhibition); type: cell-based; conditions: read-out: Erythroid IC50
Procedure: (§1) In vitro toxicology. Experiments for assessing micronuclei in mouse lymphoma cells^19 myeloid cytotoxicity^20 and erythroid cytotoxicity^21 were performed as described previously.

[2] = 28 day oral toxicology study, rat; type: in vivo, Han Wistar rat; conditions: for NOAEL at 28 days: in vivo
Procedure: The following dosing formulation for rat and dog 28 day PO studies was used: a 100 mg/mL stock of ETX0914 in 5% dextrose and 2.5M meglumine adjusted to pH 9 using 5M HCl or 2.5M meglumine. The dosing formulations were diluted as required with phosphate buffered saline and dispensed daily. […] A control group of 10 male and 10 females were given the vehicle only. An additional 3 animals per sex were allocated to each group for toxicokinetics wherein blood samples (1 mL) from the tail vein pre-trial and on Day 27 were collected. […] Animals were terminated by exposure to CO2. The following were assessed: clinical observations, body weight, food consumption, body temperature, hematology, plasma chemistry, toxicokinetics and gross and microscopic pathology.

Streptococcus pneumoniae = tested on: Streptococcus pneumoniae; set-up: method as in ref 2 (supplement); conditions: 2324 tested; ref 2 (supplement); cited from earlier work
S. aureus = conditions: 4X MIC, various strains; cited from earlier work
Staphylococcus aureus = conditions: cited from earlier work
Ito/Kv4.3 = molecular target: T1, Ito/Kv4.3 (Homo sapiens, UniProt Q9UK17); assay: In vitro ion channel function; type: cell-based; conditions: Ito/Kv4.3 IC50, Transient outward K^+ early repolarization
T1 sequence (Q9UK17 1-655): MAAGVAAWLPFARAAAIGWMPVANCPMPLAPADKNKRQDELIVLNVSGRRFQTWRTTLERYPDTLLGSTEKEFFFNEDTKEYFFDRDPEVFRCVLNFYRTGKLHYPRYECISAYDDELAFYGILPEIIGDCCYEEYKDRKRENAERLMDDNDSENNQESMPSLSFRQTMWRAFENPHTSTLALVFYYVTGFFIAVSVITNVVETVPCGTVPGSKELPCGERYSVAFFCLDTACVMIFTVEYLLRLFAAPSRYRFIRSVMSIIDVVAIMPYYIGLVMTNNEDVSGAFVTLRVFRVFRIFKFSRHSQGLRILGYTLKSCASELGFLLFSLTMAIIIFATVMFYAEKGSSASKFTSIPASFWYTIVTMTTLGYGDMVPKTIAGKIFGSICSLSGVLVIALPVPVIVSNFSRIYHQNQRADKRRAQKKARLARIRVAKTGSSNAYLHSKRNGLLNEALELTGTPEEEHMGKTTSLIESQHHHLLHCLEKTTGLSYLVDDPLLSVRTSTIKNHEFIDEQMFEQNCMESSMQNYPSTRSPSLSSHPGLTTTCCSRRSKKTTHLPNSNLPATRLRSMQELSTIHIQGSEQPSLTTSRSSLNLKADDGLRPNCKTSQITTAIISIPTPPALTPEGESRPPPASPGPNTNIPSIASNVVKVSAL
Description: (§2) Supplement srep11827-s1.doc, table 3 | column: Table S2: In vitro ion channel function IC50 (µM)

Kv1.5 = Kv1.5 (Homo sapiens, UniProt P22460); assay: In vitro ion channel function; type: cell-based; conditions: Ikr/Kv1.5 IC50, Rapidly activating K^+ delayed rectifier
Description: as §2

Iks/Kv7.1 = Iks/Kv7.1 (Homo sapiens, UniProt P51787); assay: In vitro ion channel function; type: cell-based; conditions: Iks/Kv7.1 IC50, Slowly activating K^+ delayed rectifier
Description: as §2

hNav1.5 = hNav1.5 (Homo sapiens, UniProt Q14524); assay: In vitro ion channel function; type: cell-based; conditions: hNav1.5 IC50, Initiation of cardiac action potential/QRS interval
Description: as §2

hCav1.2 = hCav1.2 (Homo sapiens, UniProt Q13936); assay: In vitro ion channel function; type: cell-based; conditions: hCav1.2 IC50, Ca^2+ entry into excitable cells
Description: as §2

S. aureus ARC516 = assay: MIC (CLSI broth microdilution); type: cell-based
Neisseria gonorrhoeae = conditions: cited from earlier work
[3] = tested on: mammalian myeloid cell lines; assay: myeloid cytotoxicity (growth inhibition); type: cell-based; conditions: read-out: Myeloid IC50
Procedure: as §1

[4] = 11640 tested, ref 2 (supplement)
[5] = 473 tested, ref 4-6 (supplement)

hCav1.2, sequence (P54289 25-1103): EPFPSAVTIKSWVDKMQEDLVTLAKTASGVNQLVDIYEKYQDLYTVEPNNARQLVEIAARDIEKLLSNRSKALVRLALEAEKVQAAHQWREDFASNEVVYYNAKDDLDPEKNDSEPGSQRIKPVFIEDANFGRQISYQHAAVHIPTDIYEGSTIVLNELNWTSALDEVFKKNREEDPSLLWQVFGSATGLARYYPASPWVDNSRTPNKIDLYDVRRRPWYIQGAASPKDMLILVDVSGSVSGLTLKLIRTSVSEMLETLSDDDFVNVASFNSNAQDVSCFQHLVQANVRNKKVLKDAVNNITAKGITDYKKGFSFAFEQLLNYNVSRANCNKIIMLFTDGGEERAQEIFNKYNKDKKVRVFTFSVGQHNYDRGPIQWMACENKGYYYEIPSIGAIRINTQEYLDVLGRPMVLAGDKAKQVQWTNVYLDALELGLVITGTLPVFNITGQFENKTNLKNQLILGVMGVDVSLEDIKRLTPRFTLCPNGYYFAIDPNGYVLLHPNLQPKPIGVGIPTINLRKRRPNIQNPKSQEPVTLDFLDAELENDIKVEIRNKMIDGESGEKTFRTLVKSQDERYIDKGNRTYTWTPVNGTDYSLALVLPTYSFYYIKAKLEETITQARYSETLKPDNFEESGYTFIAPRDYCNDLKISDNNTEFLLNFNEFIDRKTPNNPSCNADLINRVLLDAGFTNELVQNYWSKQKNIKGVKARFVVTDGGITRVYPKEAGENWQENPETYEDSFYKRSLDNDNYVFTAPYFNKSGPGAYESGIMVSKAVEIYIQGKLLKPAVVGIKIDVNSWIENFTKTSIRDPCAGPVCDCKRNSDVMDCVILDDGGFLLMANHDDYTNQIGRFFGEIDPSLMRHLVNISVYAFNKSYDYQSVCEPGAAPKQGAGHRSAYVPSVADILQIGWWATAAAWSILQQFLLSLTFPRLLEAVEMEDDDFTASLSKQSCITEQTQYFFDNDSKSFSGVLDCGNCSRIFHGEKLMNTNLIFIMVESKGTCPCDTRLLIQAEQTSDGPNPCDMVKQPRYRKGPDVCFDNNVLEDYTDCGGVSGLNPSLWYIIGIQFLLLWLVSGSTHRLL
hCav1.2, sequence (Q13936 whole entry): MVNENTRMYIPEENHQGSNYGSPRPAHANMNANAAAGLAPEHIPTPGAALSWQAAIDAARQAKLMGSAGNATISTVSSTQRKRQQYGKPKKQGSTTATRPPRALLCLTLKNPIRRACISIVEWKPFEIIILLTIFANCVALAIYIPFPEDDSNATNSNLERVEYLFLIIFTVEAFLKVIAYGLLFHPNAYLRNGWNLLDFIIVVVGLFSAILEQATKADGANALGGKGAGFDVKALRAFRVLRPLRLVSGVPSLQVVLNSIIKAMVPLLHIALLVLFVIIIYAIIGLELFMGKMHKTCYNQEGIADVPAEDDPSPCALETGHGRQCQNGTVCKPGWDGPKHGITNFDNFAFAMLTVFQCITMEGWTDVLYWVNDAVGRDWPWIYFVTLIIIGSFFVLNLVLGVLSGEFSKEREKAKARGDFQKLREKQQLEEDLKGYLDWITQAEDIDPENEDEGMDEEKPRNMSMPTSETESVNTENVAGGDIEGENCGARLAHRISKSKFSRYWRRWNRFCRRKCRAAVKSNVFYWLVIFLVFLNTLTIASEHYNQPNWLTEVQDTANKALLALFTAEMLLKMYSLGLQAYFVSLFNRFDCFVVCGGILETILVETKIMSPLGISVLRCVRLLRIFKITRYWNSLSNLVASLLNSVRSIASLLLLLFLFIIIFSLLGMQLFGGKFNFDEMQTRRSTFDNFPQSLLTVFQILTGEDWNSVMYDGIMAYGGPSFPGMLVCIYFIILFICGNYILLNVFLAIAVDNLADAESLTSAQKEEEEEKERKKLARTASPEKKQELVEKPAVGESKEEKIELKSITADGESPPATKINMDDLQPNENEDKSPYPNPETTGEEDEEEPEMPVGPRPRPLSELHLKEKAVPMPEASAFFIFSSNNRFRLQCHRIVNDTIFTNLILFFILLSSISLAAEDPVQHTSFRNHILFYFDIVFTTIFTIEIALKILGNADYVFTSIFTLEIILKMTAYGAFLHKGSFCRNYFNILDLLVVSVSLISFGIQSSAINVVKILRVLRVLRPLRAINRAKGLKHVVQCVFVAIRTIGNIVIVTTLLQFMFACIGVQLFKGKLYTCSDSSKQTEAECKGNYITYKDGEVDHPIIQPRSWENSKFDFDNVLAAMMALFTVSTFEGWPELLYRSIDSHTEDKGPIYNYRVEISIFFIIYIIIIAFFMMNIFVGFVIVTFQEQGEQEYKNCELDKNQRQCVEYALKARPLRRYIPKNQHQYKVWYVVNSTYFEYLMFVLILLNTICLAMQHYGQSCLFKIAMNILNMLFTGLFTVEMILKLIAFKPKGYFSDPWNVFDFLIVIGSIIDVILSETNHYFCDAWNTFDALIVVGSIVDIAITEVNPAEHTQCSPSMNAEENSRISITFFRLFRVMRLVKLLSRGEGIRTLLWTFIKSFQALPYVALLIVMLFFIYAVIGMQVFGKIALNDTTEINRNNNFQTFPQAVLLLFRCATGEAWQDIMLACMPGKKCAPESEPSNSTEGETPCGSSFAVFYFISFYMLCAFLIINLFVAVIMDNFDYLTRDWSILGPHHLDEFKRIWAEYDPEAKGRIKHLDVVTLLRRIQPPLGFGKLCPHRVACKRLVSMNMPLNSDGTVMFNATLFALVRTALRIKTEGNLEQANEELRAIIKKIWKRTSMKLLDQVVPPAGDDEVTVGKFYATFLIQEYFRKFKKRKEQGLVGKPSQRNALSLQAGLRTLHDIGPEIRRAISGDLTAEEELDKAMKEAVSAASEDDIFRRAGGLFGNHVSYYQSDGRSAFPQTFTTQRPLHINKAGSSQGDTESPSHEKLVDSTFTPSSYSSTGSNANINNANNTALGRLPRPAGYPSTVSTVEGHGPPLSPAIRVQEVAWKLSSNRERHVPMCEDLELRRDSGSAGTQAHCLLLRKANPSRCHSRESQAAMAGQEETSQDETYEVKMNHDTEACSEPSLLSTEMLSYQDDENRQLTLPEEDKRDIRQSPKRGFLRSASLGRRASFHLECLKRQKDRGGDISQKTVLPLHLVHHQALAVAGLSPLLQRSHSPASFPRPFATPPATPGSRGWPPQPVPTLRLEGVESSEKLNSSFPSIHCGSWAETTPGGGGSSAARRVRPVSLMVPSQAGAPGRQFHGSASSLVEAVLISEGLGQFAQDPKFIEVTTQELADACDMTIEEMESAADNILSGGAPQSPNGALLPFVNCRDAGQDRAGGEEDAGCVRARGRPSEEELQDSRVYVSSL
hCav1.2, sequence (Q08289 whole entry, further chain): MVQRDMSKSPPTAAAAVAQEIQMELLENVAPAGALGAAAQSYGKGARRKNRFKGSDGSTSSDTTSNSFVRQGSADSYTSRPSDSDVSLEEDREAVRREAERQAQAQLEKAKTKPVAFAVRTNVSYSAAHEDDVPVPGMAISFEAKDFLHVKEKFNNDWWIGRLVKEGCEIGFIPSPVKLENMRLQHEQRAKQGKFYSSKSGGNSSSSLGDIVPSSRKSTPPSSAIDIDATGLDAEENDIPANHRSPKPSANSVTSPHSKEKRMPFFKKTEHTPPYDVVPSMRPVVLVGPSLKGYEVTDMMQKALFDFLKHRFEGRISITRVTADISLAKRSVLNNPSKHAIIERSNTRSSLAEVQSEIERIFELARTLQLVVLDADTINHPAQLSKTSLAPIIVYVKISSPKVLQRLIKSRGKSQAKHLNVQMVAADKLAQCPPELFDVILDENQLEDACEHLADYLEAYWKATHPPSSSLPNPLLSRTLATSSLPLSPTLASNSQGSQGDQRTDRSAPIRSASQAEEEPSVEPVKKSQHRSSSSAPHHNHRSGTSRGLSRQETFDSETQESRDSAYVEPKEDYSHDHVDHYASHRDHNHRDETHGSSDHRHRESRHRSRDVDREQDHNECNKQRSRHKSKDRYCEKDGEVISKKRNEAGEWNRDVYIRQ
Kv1.5, sequence (P22460 whole entry): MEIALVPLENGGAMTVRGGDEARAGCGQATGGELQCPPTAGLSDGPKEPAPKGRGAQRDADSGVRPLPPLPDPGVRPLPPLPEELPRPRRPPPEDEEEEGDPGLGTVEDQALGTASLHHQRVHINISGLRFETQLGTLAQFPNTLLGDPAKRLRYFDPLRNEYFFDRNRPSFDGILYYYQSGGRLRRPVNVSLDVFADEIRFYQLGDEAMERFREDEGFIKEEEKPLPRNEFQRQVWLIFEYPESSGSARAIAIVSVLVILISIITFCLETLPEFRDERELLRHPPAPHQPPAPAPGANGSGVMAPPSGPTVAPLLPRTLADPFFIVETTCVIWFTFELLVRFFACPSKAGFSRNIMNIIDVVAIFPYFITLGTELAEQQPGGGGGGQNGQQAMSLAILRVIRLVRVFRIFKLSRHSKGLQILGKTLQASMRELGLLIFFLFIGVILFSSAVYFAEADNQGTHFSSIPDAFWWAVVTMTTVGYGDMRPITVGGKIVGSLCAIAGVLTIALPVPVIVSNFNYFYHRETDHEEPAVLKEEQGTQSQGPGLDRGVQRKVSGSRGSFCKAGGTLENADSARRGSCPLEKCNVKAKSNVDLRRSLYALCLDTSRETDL

For C[C@@H]1CN2c3c(cc4c(N5C(=O)OC[C@@H]5C)noc4c3F)CC3(C(=O)NC(=O)NC3=O)[C@H]2[C@H](C)O1 [ETX0914], the MIC90 (Mycoplasma genitalium) is given as 1.0^3 µg/ml, the “MIC Range” value (Mycoplasma genitalium) is given as 0.5 to 1.0 µg/mL and the MIC (MRSA ATCC33591) is given as 0.125 µg/mL (≈ 0.256 µM). For the same compound, the “inhibition of ATPase activity” value (DNA gyrase or Topo IV) was “lack of inhibition of ATPase activity”, the IC50 [1] was greater than 100 µM and the “Salient Pathology Findings” value ([2]; 1 month rat (po), 500 mg/kg/day) was “Reduced activity, pilo-erection, irregular respiration Seminal vesicle: secretory depletion, atrophy Epididymis: cellular debris (minimal) Spleen: increased congestion/haematopoiesis Cecum & rectum: mucosal hyperplasia”. The “Salient Pathology Findings” value ([2]; 1 month rat (po), 1000 mg/kg/day) was “As above & testes tubular degeneration partially reversible 3 months post dosing”, the AUC(0-t) ([2]; both sexes, Han Wistar, blood, oral, rat, 200 mg/kg, day 27, read-out: AUC24h at NOAEL) was 1070 µg·h/mL and the Cmax ([2]; both sexes, Han Wistar, blood, oral, rat, 200 mg/kg, day 27, read-out: Cmax at NOAEL) was 107 µg/mL. For the same compound, the NOAEL at 28 days ([2]; both sexes, Han Wistar, oral, rat, 28 days) was 200 mg/kg, the NOAEL at 28 days ([2]; both sexes, Han Wistar, 1 month rat (po)) was 200 mg/kg/day and the AUC ([2]; both sexes, Han Wistar, plasma, 1 month rat (po), 200 mg/kg/day) was 1100 ± 130 µg·h/mL. For the same compound, the Cmax ([2]; both sexes, Han Wistar, plasma, 1 month rat (po), 200 mg/kg/day, read-out: Cmax (±SD)) was 110 ± 30 µg/mL, the AUC ([2]; both sexes, Han Wistar, plasma, 1 month rat (po), 500 mg/kg/day) was 2460 ± 470 µg·h/mL and the Cmax ([2]; both sexes, Han Wistar, plasma, 1 month rat (po), 500 mg/kg/day, read-out: Cmax (±SD)) was 170 ± 30 µg/mL. For the same compound, the AUC ([2]; both sexes, Han Wistar, plasma, 1 month rat (po), 1000 mg/kg/day) was 3820 ± 650 µg·h/mL, the Cmax ([2]; both sexes, Han Wistar, plasma, 1 month rat (po), 1000 mg/kg/day, read-out: Cmax (±SD)) was 260 ± 55 µg/mL and the “margin of fAUC at rat NOAEL to efficacious fAUC in mouse thigh model” value ([2]; both, Han Wistar, rat, plasma, oral, 200 mg/kg) was 13 fold. For the same compound, the “haematology or platelet count at the NOAEL” value ([2]; rat) was “no significant changes in haematology or platelet count”, the tolerated dose ([2]; rat, oral, 28 days) was “up to 1000 mg/kg/day” and the MIC90 (Streptococcus pneumoniae) was 0.25^2 µg/ml. For the same compound, the “MIC Range” value (Streptococcus pneumoniae) was no more than 0.015 to 0.5 µg/mL, the frequency of resistance (S. aureus) was < 1.1 × 10^−9 and the MIC90 (Staphylococcus aureus; [4]) was 0.25^2 µg/ml. The “MIC Range” value (Staphylococcus aureus; [4]) was no more than 8 to 500 ng/mL, the “MIC90, skin infection (S. aureus)” value (Staphylococcus aureus; Table 2) was 0.25 µg/mL (≈ 0.513 µM) and the IC50 (Ito/Kv4.3) was 216 µM. The IC50 (Kv1.5) was greater than 333 µM, the IC50 (Iks/Kv7.1) was greater than 333 µM and the IC50 (hNav1.5) was greater than 333 µM. For the same compound, the IC50 (hCav1.2) was 326 µM, the “MIC: S. aureus ARC516” value (S. aureus ARC516) was 0.125 µg/mL (≈ 0.256 µM) and the MIC (S. aureus ARC516; Staphylococcus aureus, MSSA, read-out: Modal MIC) was 0.0625 µg/mL (≈ 0.128 µM). For the same compound, the MIC90 (Neisseria gonorrhoeae; [5]) was 0.125^4-6 µg/ml, the “MIC Range” value (Neisseria gonorrhoeae; [5]) was 4 to 250 ng/mL and the “MIC90, gonococcal infection (N. gonorrhoeae)” value (Neisseria gonorrhoeae; Table 2, first entry of the cell (ciprofloxacin: 250 mg UID line)) was 0.12 µg/mL (≈ 0.246 µM). It also gave an IC50 [3] greater than 100 µM.
